Data reported in the NIST ThermoML archive (doi:10.1021/je3011979).

Experiments:
[1] = xn = mol fraction of the nth substance listed; details: 101 kPa, Liquid, Vibrating tube method
[2] = excess molar enthalpy (molar enthalpy of mixing); xn = mol fraction of the nth substance listed; details: 291.15 K, 101 kPa, Liquid, Calvet calorimetry

CCCOC(C)=O [propyl ethanoate] + CCCCCCCCC
[1]
Details	mass density [kg/m3]
291.15 K, x1 = 0.0569	724.6
291.15 K, x1 = 0.1163	730.7
291.15 K, x1 = 0.1916	739
291.15 K, x1 = 0.282	750
291.15 K, x1 = 0.3583	760
291.15 K, x1 = 0.4338	770.9
291.15 K, x1 = 0.4846	778.7
291.15 K, x1 = 0.5686	792.4
291.15 K, x1 = 0.6289	803.2
291.15 K, x1 = 0.6876	814.4
291.15 K, x1 = 0.7441	826
291.15 K, x1 = 0.7948	837.1
291.15 K, x1 = 0.8162	841.9
291.15 K, x1 = 0.8844	858.5
291.15 K, x1 = 0.9349	871.7
291.15 K, x1 = 0.9464	874.9
291.15 K, x1 = 1	889.6
298.15 K, x1 = 0.0361	717.2
298.15 K, x1 = 0.0384	717.4
298.15 K, x1 = 0.1106	724.5
298.15 K, x1 = 0.2023	734.5
298.15 K, x1 = 0.2833	744.2
298.15 K, x1 = 0.3636	754.6
298.15 K, x1 = 0.4312	764.2
298.15 K, x1 = 0.5061	775.6
298.15 K, x1 = 0.5653	785.3
298.15 K, x1 = 0.6308	796.9
298.15 K, x1 = 0.6728	804.8
298.15 K, x1 = 0.7321	816.5
298.15 K, x1 = 0.7908	829
298.15 K, x1 = 0.8257	836.9
298.15 K, x1 = 0.8918	852.8
298.15 K, x1 = 0.9404	865.6
298.15 K, x1 = 1	882.5
318.15 K, x1 = 0.0217	700
318.15 K, x1 = 0.1046	707.7
318.15 K, x1 = 0.1791	715.4
318.15 K, x1 = 0.2659	725
318.15 K, x1 = 0.335	733.4
318.15 K, x1 = 0.4077	742.9
318.15 K, x1 = 0.4731	752.1
318.15 K, x1 = 0.5367	761.7
318.15 K, x1 = 0.5943	771
318.15 K, x1 = 0.6526	781.2
318.15 K, x1 = 0.7078	791.4
318.15 K, x1 = 0.7597	801.7
318.15 K, x1 = 0.8179	814.1
318.15 K, x1 = 0.8565	822.8
318.15 K, x1 = 0.8964	832.4
318.15 K, x1 = 0.9373	842.7
318.15 K, x1 = 1	859.8
328.15 K, x1 = 0.056	695.1
328.15 K, x1 = 0.1062	699.8
328.15 K, x1 = 0.1918	708.3
328.15 K, x1 = 0.2757	717.5
328.15 K, x1 = 0.3519	726.6
328.15 K, x1 = 0.429	736.7
328.15 K, x1 = 0.4999	746.7
328.15 K, x1 = 0.5709	757.6
328.15 K, x1 = 0.6217	766
328.15 K, x1 = 0.6881	777.7
328.15 K, x1 = 0.7461	788.7
328.15 K, x1 = 0.7857	796.8
328.15 K, x1 = 0.8318	806.6
328.15 K, x1 = 0.8801	817.6
328.15 K, x1 = 0.8853	818.8
328.15 K, x1 = 0.9429	833
328.15 K, x1 = 1	848.3

[2]
Details	excess molar enthalpy [kcal/mol]
x1 = 0.1167	0.142
x1 = 0.2247	0.2261
x1 = 0.3093	0.2789
x1 = 0.379	0.3102
x1 = 0.4448	0.325
x1 = 0.5009	0.3305
x1 = 0.5447	0.3277
x1 = 0.5617	0.3248
x1 = 0.6139	0.3136
x1 = 0.6683	0.2921
x1 = 0.7299	0.2593
x1 = 0.7964	0.215
x1 = 0.8649	0.155
x1 = 0.9356	0.0848
